Experimental data as given in PubChem BioAssay AID743479 (Broad Institute, 2014).
Records with an inconclusive call do not appear. Activity calls are given as the source filed them.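 The calls were made as follows: active = fitted curve crosses 35% inhibition of luciferase signal below 10 µM, corrected for cell viability; inconclusive = no clear call, values can overlap the other calls; inactive = activity opposite to the expected decrease, otherwise the rest.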

system: not listed separately; test: inhibitors of EWS/FLI-driven NR0B1 reporter expression, dose response, luciferase luminescence, A673 cells, dry powder (AID 743479); details: A673 NR0B1-luciferase reporter, viability-normalised luminescence; at 4.2 µM (top of the series)

Question: Which activity change, negative = inhibition does the source give for `CCN(CCO)CCCOc1ccc2c(Nc3cc(CC(=O)Nc4cccc(F)c4)[nH]n3)ncnc2c1` here?
Answer: 0.506% (inactive)

same assay, conditions: A673 NR0B1-luciferase reporter, viability-normalised luminescence; at 6.8 µM (top of the series)

Question: Which activity change, negative = inhibition does the source give for `C=C([C@@H](O)[C@@H](C)O)[C@@H](OC)[C@]1(C)Cc2cc3cc(O[C@H]4CC(OC5CC(O)C(O)C(C)O5)C(O)C(C)O4)cc(O)c3c(O)c2C(=O)[C@H]1OC1CC(OC2CC(OC3CC(C)(O)C(O)C(C)O3)C(O)C(C)O2)C(O)C(C)O1` (stereo not given in full) here?
Answer: 12.4% (inactive)

same assay, conditions: A673 NR0B1-luciferase reporter, viability-normalised luminescence; at 16 µM (top of the series)

Question: For `Clc1ccc(-c2cnc3ccc(-c4ccccc4)cn23)cc1`, which activity change, negative = inhibition is on record?
Answer: 38.6% (inactive)

same assay, conditions: A673 NR0B1-luciferase reporter, viability-normalised luminescence; at 68 µM (top of the series)

Question: Which activity change, negative = inhibition does the source give for `COc1ccc(-c2cc(NC(C)=O)c3ncc(-c4ccc(OC)c(OC)c4)n3c2)cc1` here?
Answer: -21.4% (inactive)

Question: For `COc1ccc(C2CNC(=O)C2)cc1OC1CCCC1` (stereo not given), which activity change, negative = inhibition is on record?
Answer: -4.33% (inactive)

Question: With `C[C@]1(c2nc3c(C(N)=O)cccc3[nH]2)CCCN1` as the compound, how does the activity change, negative = inhibition read?
Answer: -14.9% (inactive)

Question: Which activity change, negative = inhibition does the source give for `COc1cc(Nc2ncc3c(n2)-c2ccc(Cl)cc2C(c2c(F)cccc2OC)=NC3)ccc1C(=O)O` here?
Answer: 114% (inactive)

Question: For `CCCCc1ccc2nc(NC(=O)OC)[nH]c2c1`, which activity change, negative = inhibition is on record?
Answer: -8.52% (inactive)

same assay, conditions: A673 NR0B1-luciferase reporter, viability-normalised luminescence; at 135 µM (top of the series)

Question: With `O=P1(NCCCl)OCCCN1CCCl` (stereo not given) as the compound, how does the activity change, negative = inhibition read?
Answer: 11.8% (inactive)

system: A673 NR0B1-luciferase reporter, viability-normalised luminescence; test: as above; details: not given

Question: Which AC35 does the source give for `CN(C)c1ccc2c(c1)OC(N)=C(C#N)C2c1cccc(F)c1` (stereo not given) here?
Answer: 0.0309 µM

Question: Which AC35 does the source give for `CCC(C)(C)C(=O)O[C@H]1C[C@@H](C)C=C2C=C[C@H](C)[C@H](CC[C@@H]3C[C@@H](O)CC(=O)O3)[C@H]21` here?
Answer: 55 µM

Question: Which AC35 does the source give for `COc1ccc(S(=O)(=O)N2CC[C@@H]3[C@@H](CO)N(C)c4ccc(-c5ccc(F)cc5)cc4[C@@H]32)cc1` here?
Answer: 2.85 µM

Question: With `Nc1ccn([C@@H]2O[C@H](CO)[C@H](O)C2O)c(=O)n1` (stereo not given in full) as the compound, how does the AC35 read?
Answer: 1.26 µM

Question: Which AC35 does the source give for `COc1ccc(C2=Nn3c(nnc3-c3ccccc3F)SC2)cc1OC` here?
Answer: 11.5 µM

Question: For `N#CC1=C(N)Oc2cc(N)ccc2C1c1ccccc1` (stereo not given), which AC35 is on record?
Answer: 16.6 µM

Question: For `Cc1ccc(C2C(C#N)=C(N)Oc3cc(N)ccc32)cc1` (stereo not given), which AC35 is on record?
Answer: 54.6 µM

Question: With `COc1cccc(S(=O)(=O)N2CC[C@@H]3[C@@H](CO)Nc4ccc(-c5ccc(C#N)cc5)cc4[C@@H]32)c1` as the compound, how does the AC35 read?
Answer: 28.5 µM

Question: With `COc1ccccc1-c1nnc2n1N=C(c1ccc3c(c1)OCO3)CS2` as the compound, how does the AC35 read?
Answer: 0.0242 µM

Question: With `COc1ccc(NC(=O)Nc2ccc3c(c2)C(=O)N([C@@H](C)CO)C[C@H](C)[C@H](CN(C)Cc2ccc4c(c2)OCO4)O3)cc1` as the compound, how does the AC35 read?
Answer: 18.8 µM

Question: Which AC35 does the source give for `COc1ccccc1C1C(C#N)=C(N)Oc2cc(N)ccc21` (stereo not given) here?
Answer: 53.1 µM

Question: Which AC35 does the source give for `N#CC1=C(N)Oc2cc3c(cc2C1c1cccc(Br)c1)OCO3` (stereo not given) here?
Answer: 0.0564 µM

Question: With `COc1cccc(C2C(C#N)=C(N)Oc3cc(N)ccc32)c1` (stereo not given) as the compound, how does the AC35 read?
Answer: 0.629 µM

Question: With `Clc1ccccc1-c1nnc2n1N=C(c1ccc3c(c1)OCO3)CS2` as the compound, how does the AC35 read?
Answer: 0.75 µM

Question: With `CC(C)N1c2ccccc2C(c2ccc(F)cc2)C1/C=C/C(O)CC(O)CC(=O)O` (stereo not given) as the compound, how does the AC35 read?
Answer: 7.59 µM

Question: For `Cc1ccccc1C1C(C#N)=C(N)Oc2cc(N)ccc21` (stereo not given), which AC35 is on record?
Answer: 40.9 µM

Question: For `COc1ccc(-c2ccc3c(c2)[C@H]2[C@H](CCN2S(=O)(=O)c2ccc(OC)cc2)[C@@H](CO)N3)cc1`, which AC35 is on record?
Answer: 3.57 µM

Question: For `COc1ccc(S(=O)(=O)N(C(C)=O)c2ccc(OC(C)=O)c3ccccc23)cc1[N+](=O)[O-]`, which AC35 is on record?
Answer: 2.81 µM

Question: Which AC35 does the source give for `N#CC1=C(N)Oc2cc(N)ccc2C1c1ccc2ccccc2c1` (stereo not given) here?
Answer: 19.4 µM

Question: With `N#CC1=C(N)Oc2ccc3ccccc3c2C1c1cccc(F)c1` (stereo not given) as the compound, how does the AC35 read?
Answer: 0.968 µM

Question: For `COc1cc(C2C(C#N)=C(N)Oc3cc(N(C)C)ccc32)cc2c1OCO2` (stereo not given), which AC35 is on record?
Answer: 0.186 µM

Question: For `COc1ccc(C2=Nn3c(nnc3-c3ccccc3Cl)SC2)cc1OC`, which AC35 is on record?
Answer: 0.69 µM

Question: Which AC35 does the source give for `CN1c2ccc(-c3ccc(C#N)cc3)cc2[C@H]2[C@H](CCN2S(=O)(=O)c2cccc(F)c2)[C@H]1CO` here?
Answer: 2.35 µM

Question: Which AC35 does the source give for `C[C@@]1(C(=O)Nc2ccc(F)nc2)CCCN1c1nc(Nc2cc(C3CC3)[nH]n2)c2cccn2n1` here?
Answer: 2.9 µM

Question: With `COc1ccccc1S(=O)(=O)N1CC[C@@H]2[C@@H](CO)Nc3ccc(-c4ccc(C#N)cc4)cc3[C@@H]21` as the compound, how does the AC35 read?
Answer: 15.5 µM

Question: For `COc1cc([C@@H]2c3cc4c(cc3[C@@H](O[C@@H]3O[C@@H]5CO[C@@H](C)O[C@H]5[C@H](O)[C@H]3O)[C@H]3COC(=O)[C@H]23)OCO4)cc(OC)c1O`, which AC35 is on record?
Answer: 3.01 µM

Question: With `N#CC1=C(N)Oc2cc(N)ccc2C1c1ccccc1Cl` (stereo not given) as the compound, how does the AC35 read?
Answer: 26.6 µM

Question: For `Cn1cc(-c2ccncc2)c(-c2ccc(OCc3ccc4ccccc4n3)cc2)n1`, which AC35 is on record?
Answer: 51.7 µM

Question: With `CN1c2ccc(-c3ccc(C#N)cc3)cc2[C@H]2[C@H](CCN2S(=O)(=O)c2ccc(F)cc2)[C@H]1CO` as the compound, how does the AC35 read?
Answer: 33.6 µM

Question: Which AC35 does the source give for `N#CC1=C(N)Oc2cc(N)ccc2C1c1cccc(F)c1` (stereo not given) here?
Answer: 1.2 µM

Question: For `Cc1ccc([N+](=O)[O-])cc1S(=O)(=O)N(C)C`, which AC35 is on record?
Answer: 59.7 µM

Question: With `COC(=O)c1ccc(C2C(C#N)=C(N)Oc3cc(N)ccc32)cc1` (stereo not given) as the compound, how does the AC35 read?
Answer: 40.2 µM

Question: Which AC35 does the source give for `COc1ccc(C2=Nn3c(nnc3-c3ccccc3)SC2)cc1OC` here?
Answer: 42.7 µM

Question: With `Nc1ncnc2c1c(-c1cccc(OCc3ccccc3)c1)cn2C1CC(CN2CCCC2)C1` (stereo not given) as the compound, how does the AC35 read?
Answer: 17.3 µM

Question: Which AC35 does the source give for `COc1ccc(C2=Nn3c(nnc3-c3ccccc3OC)SC2)cc1OC` here?
Answer: 0.131 µM

Question: With `COc1ccc(-c2cc(NC=O)c3ncc(-c4ccc(OC)c(OC)c4)n3c2)cc1` as the compound, how does the AC35 read?
Answer: 0.778 µM

Question: With `N#CC1=C(N)Oc2cc(N)ccc2C12C(=O)Nc1ccc(Br)cc12` (stereo not given) as the compound, how does the AC35 read?
Answer: 43.3 µM

Question: With `Cc1nc(Nc2ncc(C(=O)Nc3c(C)cccc3Cl)s2)cc(N2CCN(CCO)CC2)n1` as the compound, how does the AC35 read?
Answer: 18.9 µM

Question: For `COc1ccc(C(=O)CC2(O)C(=O)Nc3c(Cl)ccc(Cl)c32)cc1` (stereo not given), which AC35 is on record?
Answer: 3.21 µM

Question: With `O=C(Nc1c(Cl)cncc1Cl)c1ccc(OC(F)F)c(OCC2CC2)c1` as the compound, how does the AC35 read?
Answer: 56.9 µM

Question: With `CN(C(=O)CCCOc1ccc2[nH]c(=O)ccc2c1)C1CCCCC1` as the compound, how does the AC35 read?
Answer: 49.6 µM

Question: Which AC35 does the source give for `COc1ccc(C2C(C#N)=C(N)Oc3cc(N)ccc32)cc1` (stereo not given) here?
Answer: 53.2 µM

Question: Which AC35 does the source give for `COc1ccc(S(=O)(=O)N2CC[C@@H]3[C@@H](CO)Nc4ccc(-c5cccc(C#N)c5)cc4[C@@H]32)cc1` here?
Answer: 4.71 µM

Question: With `Cc1ccc(S(=O)(=O)N2CC[C@@H]3[C@@H](CO)Nc4ccc(-c5ccc(C#N)cc5)cc4[C@@H]32)cc1` as the compound, how does the AC35 read?
Answer: 17.2 µM

Question: For `CCOC(=O)CCNc1cc(N2CCc3ccccc3CC2)nc(-c2ccccn2)n1`, which AC35 is on record?
Answer: 32.8 µM

Question: For `COc1ccc(S(=O)(=O)N2CC[C@@H]3[C@H](CO)Nc4ccc(-c5ccc(C#N)cc5)cc4[C@@H]32)cc1`, which AC35 is on record?
Answer: 8.44 µM

Question: Which AC35 does the source give for `CC[C@@]1(O)C(=O)OCc2c1cc1n(c2=O)Cc2cc3c(CN(C)C)c(O)ccc3nc2-1` here?
Answer: 0.112 µM

Question: Which AC35 does the source give for `CC1(C)CC(c2nc(-c3ccc4ccc(-c5ccccc5)nc4c3)c3c(N)nccn23)C1` here?
Answer: 37.9 µM

Question: With `COc1ccc(-c2ccc3c(c2)[C@H]2[C@H](CCN2S(=O)(=O)c2ccc(OC)cc2)[C@@H](CO)N3C)cc1` as the compound, how does the AC35 read?
Answer: 4.43 µM

Question: With `N#CC1=C(N)Oc2cc(N)ccc2C1c1ccc(Cl)cc1` (stereo not given) as the compound, how does the AC35 read?
Answer: 43 µM

Question: Which AC35 does the source give for `Cc1cc(Nc2cc(N3CCN(C)CC3)nc(Sc3ccc(NC(=O)C4CC4)cc3)n2)n[nH]1` here?
Answer: 39.5 µM

Question: For `COc1ccc(OC)c(-c2nnc3n2N=C(c2ccc(OC)c(OC)c2)CS3)c1`, which AC35 is on record?
Answer: 0.0319 µM

Question: With `N#CC1=C(N)Oc2cc(OC(=O)c3ccccc3)ccc2C1c1cccc(Br)c1` (stereo not given) as the compound, how does the AC35 read?
Answer: 3.55 µM

Question: With `N#Cc1ccc(-c2ccc3c(c2)[C@H]2[C@H](CCN2S(=O)(=O)c2ccccc2F)[C@@H](CO)N3)cc1` as the compound, how does the AC35 read?
Answer: 7.82 µM

Question: For `COc1ccccc1-c1nnc2n1N=C(c1ccc(O)c(O)c1)CS2`, which AC35 is on record?
Answer: 3.93 µM

Question: For `N#Cc1ccc(-c2ccc3c(c2)[C@H]2[C@H](CCN2S(=O)(=O)c2cccc(F)c2)[C@@H](CO)N3)cc1`, which AC35 is on record?
Answer: 4.95 µM

Question: With `CN1CCN(CCOc2cc(OC3CCOCC3)c3c(Nc4c(Cl)ccc5c4OCO5)ncnc3c2)CC1` as the compound, how does the AC35 read?
Answer: 17.3 µM

Question: With `N#CC1=C(N)Oc2cc(O)ccc2C1c1cccc(Br)c1` (stereo not given) as the compound, how does the AC35 read?
Answer: 2.2 µM

Question: With `CCC(C)C(=O)OC1CC(C)C=C2C=CC(C)C(CCC(O)CC(O)CC(=O)O)C21` (stereo not given) as the compound, how does the AC35 read?
Answer: 55.5 µM

Question: Which AC35 does the source give for `O=C(c1cc(Cc2n[nH]c(=O)c3ccccc23)ccc1F)N1CCN(C(=O)C2CC2)CC1` here?
Answer: 238 µM

Question: Which AC35 does the source give for `COc1ccc(S(=O)(=O)N2CC[C@@H]3[C@@H](CO)Nc4ccc(-c5ccc(C#N)cc5)cc4[C@@H]32)cc1` here?
Answer: 3.37 µM

Question: For `COc1cccc2c1C(=O)c1c(O)c3c(c(O)c1C2=O)C[C@@](O)(C(=O)CO)C[C@@H]3O[C@H]1C[C@H](N)[C@H](O)[C@H](C)O1`, which AC35 is on record?
Answer: 15.1 µM

Question: Which AC35 does the source give for `Cc1cccc(C2C(C#N)=C(N)Oc3cc(N)ccc32)c1` (stereo not given) here?
Answer: 0.705 µM

Question: Which AC35 does the source give for `COc1ccc(CNc2nc(N3CCC[C@H]3CO)ncc2C(=O)NCc2ncccn2)cc1Cl` here?
Answer: 45.2 µM

Question: Which AC35 does the source give for `N#CC1=C(N)Oc2cc(N)ccc2C1c1cccc(Br)c1` (stereo not given) here?
Answer: 0.223 µM

Question: Which AC35 does the source give for `CCc1c2c(nc3ccc(O)cc13)-c1cc3c(c(=O)n1C2)COC(=O)C3(O)CC` (stereo not given) here?
Answer: 0.00781 µM
